US20210278408A1, “METHODS OF TREATMENT OF CANCER WITH SUBSTITUTED PYRROLE AND PYRAZOLE COMPOUNDS AND DIAGNOSIS OF CANCERS SUSCEPTIBLE TO TREATMENT WITH SUBSTITUTED PYRROLE AND PYRAZOLE COMPOUNDS” (Bantam Pharmaceutical, LLC, priority 2018, published 2021)
Read-outs that look alike come from different tables or passages of the source.

Test system: 407 cancer cell lines
Assay: Cell viability of cancer cell lines (IC50), CellTiter-Glo Viability Assay, 96 h
Type: cell-based
Details: Homo sapiens, read-out: Absolute IC50
Procedure: Viability was determined by using the 50% inhibitory concentration (IC50) as determined with the CellTiter-Glo® Viability Assay (Promega).
Experiments were initiated by first thawing and equilibrating the CellTiter-Glo® Buffer to room temperature. The lyophilized CellTiter-Glo® Substrate was also equilibrated to room temperature. The lyophilized substrate was reconstituted with the CellTiter-Glo® buffer to form the CellTiter-Glo® Reagent.
Cells were harvested during the logarithmic growth period, counted, and the cell concentration adjusted to 4.44×10^4 cells/mL using culture medium.
Cells were allowed to grow overnight and the following day, the TO reading was obtained by adding 10 μL culture medium to each well of Plate A. The plate was allowed to equilibrate at room temperature for thirty minutes, after which 50 μL CellTiter-Glo® reagent was added to each well. The contents were mixed for 5 min on an orbital shaker to induce cell lysis. Plates were incubated for 20 minutes to stabilize the luminescent signal and the TO luminescence recorded.
Test plate B was incubated for 96 h in the humidified incubator at 37° C. with 5% CO2.
Following the incubation, the plate was equilibrated at room temperature for thirty minutes. CellTiter-Glo® (50 μL) was added to each well of the plate and contents mixed for five minutes on an orbital shaker to induce cell lysis. The luminescent signal was allowed to stabilize at room temperature for 20 minutes and the luminescence recorded.
IC50 (EC50) was calculated using a dose-response curve, fitted using a nonlinear regression model with a sigmoidal dose response. Survival rate was calculated using the formula:
The Surviving rate (%)=(LumTest article−LumMedium control)/(LumNon-treated−LumMedium control)×100%.
Absolute IC50 (EC50) was calculated according to the dose-response curve generated by the statistical software (GraphPad Prism 5.0).

Cc1nn(-c2nc(-c3ccc(C(F)(F)F)cc3)c(SC(C)C)s2)c(C(=O)O)c1-c1cccc(F)c1 [Compound A197, 4-(3-fluorophenyl)-1-(5-(isopropylthio)-4-(4-(trifluoromethyl)phenyl)thiazol-2-yl)-3-methyl-1H-pyrazole-5-carboxylic acid]
IC50 (NCI-H292, 96 h, NCI-H292 cells, 96 h): > 30000 nM | IC50 (NCI-H358, 96 h, NCI-H358 cells, 96 h): 380 nM | IC50 (NCI-H441, 96 h, NCI-H441 cells, 96 h): > 30000 nM | IC50 (NCI-H446, 96 h, NCI-H446 cells, 96 h): > 30000 nM | IC50 (NCI-H460, 96 h, NCI-H460 cells, 96 h): > 30000 nM | IC50 (NCI-H508, 96 h, NCI-H508 cells, 96 h): 1330 nM | IC50 (NCI-H520, 96 h, NCI-H520 cells, 96 h): 300 nM | IC50 (NCI-H522, 96 h, NCI-H522 cells, 96 h): > 30000 nM | IC50 (NCI-H526, 96 h, NCI-H526 cells, 96 h): > 30000 nM | IC50 (NCI-H596, NCI-H596): > 30000 nM | IC50 (NCI-H661, 96 h, NCI-H661 cells, 96 h): > 30000 nM | IC50 (NCI-H716, 96 h, NCI-H716 cells, 96 h): 1570 nM | IC50 (NCI-H727, 96 h, NCI-H727 cells, 96 h): > 30000 nM | IC50 (NCI-H747, 96 h, NCI-H747 cells, 96 h): > 30000 nM | IC50 (NCI-H929, NCI-H929): 19000 nM | IC50 (NCI-H1048, 96 h, NCI-H1048 cells, 96 h): > 30000 nM | IC50 (NCI-H1155, 96 h, NCI-H1155 cells, 96 h): 460 nM | IC50 (NCI-H1299, 96 h, NCI-H1299 cells, 96 h): 780 nM | IC50 (NCI-H1373, NCI-H1373): 800 nM | IC50 (NCI-H1395, NCI-H1395): 370 nM | IC50 (NCI-H1437, 96 h, NCI-H1437 cells, 96 h): 310 nM | IC50 (NCI-H1563, NCI-H1563): > 30000 nM | IC50 (NCI-H1573, 96 h, NCI-H1573 cells, 96 h): 460 nM | IC50 (NCI-H1581, 96 h, NCI-H1581 cells, 96 h): > 30000 nM | IC50 (NCI-H1648, 96 h, NCI-H1648 cells, 96 h): > 30000 nM | IC50 (NCI-H1650, NCI-H1650): > 30000 nM | IC50 (NCI-H1651, 96 h, NCI-H1651 cells, 96 h): 860 nM | IC50 (NCI-H1666, 96 h, NCI-H1666 cells, 96 h): > 30000 nM | IC50 (NCI-H1703, 96 h, NCI-H1703 cells, 96 h): 360 nM | IC50 (NCI-H1792, 96 h, NCI-H1792 cells, 96 h): 1270 nM | IC50 (NCI-H1838, 96 h, NCI-H1838 cells, 96 h): > 30000 nM | IC50 (NCI-H1975, 96 h, NCI-H1975 cells, 96 h): > 30000 nM | IC50 (NCI-H1993, 96 h, NCI-H1993 cells, 96 h): 1200 nM | IC50 (NCI-H2009, NCI-H2009): 4840 nM | IC50 (NCI-H2052, NCI-H2052): > 30000 nM | IC50 (NCI-H2087, 96 h, NCI-H2087 cells, 96 h): > 30000 nM | IC50 (NCI-H2122, 96 h, NCI-H2122 cells, 96 h): 270 nM | IC50 (NCI-H2170, 96 h, NCI-H2170 cells, 96 h): 500 nM | IC50 (NCI-H2228, 96 h, NCI-H2228 cells, 96 h): 610 nM | IC50 (NCI-H2452, NCI-H2452): > 30000 nM | IC50 (NCI-H3122, 96 h, NCI-H3122 cells, 96 h): 390 nM | IC50 (NCI-N87, 96 h): 1470 nM | IC50 (NUGC-3, 96 h, NUGC-3 cells, 96 h): 22900 nM | IC50 (NUGC-4, 96 h, NUGC-4 cells, 96 h): 1530 nM | IC50 (OCI-AML-3, OCI-AML3): > 30000 nM | IC50 (OCI-LY19, OCI-LY-19): 950 nM | IC50 (OCI-Ly7, 96 h, OCI-LY7 cells, 96 h): 680 nM | IC50 (OE19, 96 h): > 30000 nM | IC50 (OPM-2, OPM2): 370 nM | IC50 (OS-RC-2, OS-RC-2): > 30000 nM | IC50 (OVCAR-3, 96 h, OVCAR-3 cells, 96 h): > 30000 nM | IC50 (OVCAR-8, 96 h, OVCAR-8 cells, 96 h): 1020 nM | IC50 (PANC-1, PANC-1): 2700 nM | IC50 (PC-3, PC-3): > 30000 nM | IC50 (PC-9, 96 h, PC-9 cells, 96 h): 1110 nM | IC50 (PLC-PRF-5, PLC/PRF/5): 1240 nM | IC50 (Pfeiffer, 96 h, Pfeiffer cells, 96 h): 180 nM | IC50 (REH): 310 nM | IC50 (RKO): 23600 nM | IC50 (RL95-2, 96 h, RL95-2 cells, 96 h): 420 nM | IC50 (RPMI-2650, 96 h, RPMI-2650 cells, 96 h): 810 nM | IC50 (RPMI-8226, 96 h, RPMI 8226 cells, 96 h): 750 nM | IC50 (RS4-11, RS4;11): 690 nM | IC50 (RT112/84, RT112/84): 12500 nM | IC50 (RT-4, 96 h, RT4 cells, 96 h): 830 nM | IC50 (Raji, 96 h, Raji cells, 96 h): 450 nM | IC50 (Ramos, 96 h, Ramos cells, 96 h): 760 nM | IC50 (SAOS-2, Saos-2): 820 nM | IC50 (SCC-4, 96 h): > 30000 nM | IC50 (SCC-9, 96 h, SCC-9 cells, 96 h): > 30000 nM | IC50 (SCC-15, 96 h, SCC-15 cells, 96 h): > 30000 nM | IC50 (SCC-25, 96 h, SCC-25 cells, 96 h): > 30000 nM | IC50 (SF-126, 96 h, SF-126 cells, 96 h): > 30000 nM | IC50 (SF-268, 96 h, SF268 cells, 96 h): > 30000 nM | IC50 (SH-SY5Y): > 30000 nM | IC50 (SJSA-1, SJSA-1): > 30000 nM | IC50 (SK-BR-3, SK-BR-3): 29600 nM | IC50 (SK-CO-1, 96 h, SK-CO-1 cells, 96 h): 1120 nM | IC50 (SK-HEP1, 96 h, SK-HEP-1 cells, 96 h): > 30000 nM | IC50 (SK-LU-1, 96 h, SK-LU-1 cells, 96 h): 1050 nM | IC50 (SK-MEL-5, 96 h): > 30000 nM | IC50 (SK-MEL-28, 96 h): > 30000 nM | IC50 (SK-MES-1, SK-MES-1): 1210 nM | IC50 (SK-N-FI, 96 h, SK-N-FI cells, 96 h): 1190 nM | IC50 (SK-N-SH): > 30000 nM | IC50 (SK-NEP-1, 96 h, SK-NEP-1 cells, 96 h): 1060 nM | IC50 (SK-OV-3, 96 h, SK-OV-3 cells, 96 h): > 30000 nM | IC50 (SK-UT-1, 96 h, SK-UT-1 cells, 96 h): > 30000 nM | IC50 (SNU1, 96 h, SNU-1 cells, 96 h): 10700 nM | IC50 (SNU-5, 96 h): 1830 nM | IC50 (SNU-354, SNU-354): > 30000 nM | IC50 (SNU-387, SNU-387): > 30000 nM | IC50 (SNU-398, SNU-398): 220 nM | IC50 (SNU-423, 96 h, SNU-423 cells, 96 h): > 30000 nM | IC50 (SNU-449, SNU-449): 24300 nM | IC50 (SNU-475, 96 h, SNU-475 cells, 96 h): 2510 nM | IC50 (SNU-638, 96 h, SNU-638 cells, 96 h): > 30000 nM | IC50 (ST486, 96 h, ST486 cells, 96 h): 220 nM | IC50 (SU-DHL-1, SU-DHL-1): 330 nM | IC50 (SU-DHL-4, SU-DHL-4): 1070 nM | IC50 (SU-DHL-5, 96 h, SU-DHL-5 cells, 96 h): 420 nM | IC50 (SU-DHL-6, 96 h, SU-DHL-6 cells, 96 h): 1050 nM | IC50 (SU-DHL-8, SU-DHL-8): 750 nM | IC50 (SUM-159-PT, SUM159PT): 17800 nM | IC50 (SUP-B15, SUP-B15): 1220 nM | IC50 (SW13, SW-13): 350 nM | IC50 (SW48, 96 h, SW48 cells, 96 h): > 30000 nM | IC50 (SW480, SW480): > 30000 nM | IC50 (SW626, 96 h, SW626 cells, 96 h): > 30000 nM | IC50 (SW684, 96 h, SW684 cells, 96 h): > 30000 nM | IC50 (SW756, 96 h, SW756 cells, 96 h): 28400 nM | IC50 (SW780, 96 h, SW780 cells, 96 h): 22600 nM | IC50 (SW837, 96 h, SW837 cells, 96 h): > 30000 nM | IC50 (SW948, 96 h, SW948 cells, 96 h): > 30000 nM | IC50 (SW982, 96 h, SW982 cells, 96 h): > 30000 nM | IC50 (SW 1116, 96 h, SW1116 cells, 96 h): > 30000 nM | IC50 (SW1417, 96 h, SW1417 cells, 96 h): > 30000 nM | IC50 (SW1990, SW1990): 18100 nM | IC50 (SiHa, 96 h, SiHa cells, 96 h): > 30000 nM | IC50 (T47D): > 30000 nM | IC50 (T84, T84): > 30000 nM | IC50 (T-24, 96 h, T24 cells, 96 h): > 30000 nM | IC50 (TE-1, TE-1): 9770 nM | IC50 (TF-1, TF-1): > 30000 nM | IC50 (THP-1, 96 h, THP-1 cells, 96 h): 210 nM
